Read-outs that look alike come from different tables or passages of the source.
Key:
SaSiaT = SaSiaT (Staphylococcus aureus, UniProt A0A0H2XJ46); test: nanoDSF thermal shift assay, SaSiaT; assay type: binding; conditions: for Average 1 / Average 2 / Average 3 / Replicate 1 / Replicate 2 / Replicate 3: SaSiaT Tm; for Average 1: average of experiment 1; for Average 2: average of experiment 2; for Average 3: average of experiment 3; for Replicate 1: experiment 1, second capillary; for Replicate 1 / Replicate 2 / Replicate 3 / Tm 1 / Tm2 / Tm 3 / Overall average (Tm): 1.25 mM; for Replicate 2: experiment 2, second capillary; for Replicate 3: experiment 3, second capillary; for Tm 1: experiment 1, first capillary; for Tm2: experiment 2, first capillary; for Tm 3: experiment 3, first capillary; for Overall average (Tm): three experiments
Experimental: (§1) Nano-differential scanning fluorimetry (nanoDSF) is a high-throughput method that relies on the thermal stabilization of the folded protein state by a bound ligand.[33]
(§2) The melting points of protein–inhibitor complexes were measured on a Prometheus NT.48 instrument from NanoTemper Technologies. Solutions containing the protein at 2 μM in phosphate buffered saline with 0.0174% (w/v) dodecylmaltoside (DDM) and the ligand at 1.25 mM were loaded onto standard capillaries by NanoTemper. The temperature was increased from 25 to 95 °C at a ramp rate of 1 °C/min. The fluorescence was recorded at 330 and 350 nm and as a ratio of the two wavelengths.
(§3) The intensity ratio and its first derivative were calculated using manufacturer’s software (PR.ThermControl, version 2.1.2).
(§4) The melting temperatures have been measured in 3 separate experiments. In each experiment, two capillaries were included per compound, having therefore 2 technical replicates per experiment. In the table all data is presented. Tm1 and Replicate 1 represent the two replicates of the first experiment. Average 1 is the average between Tm 1 and Replicate 1. ΔTm 1 is the thermal shift when compared to the Tm of Neu5Ac. This is calculated from Average 1. The ΔTm presented in the article are the ΔTm average overall, which represent the overall average of the averages from the three experiments. The standard deviation (SD) is calculated from the […]

PmSiaT = target: T1, PmSiaT (Proteus mirabilis, UniProt B4EZY7); test: nanoDSF thermal shift assay, PmSiaT; assay type: binding; conditions: for Average 1 / Average 2 / Average 3 / Replicate 1 / Replicate 2 / Replicate 3: PmSiaT Tm; for Average 1: average of experiment 1; for Average 2: average of experiment 2; for Average 3: average of experiment 3; for Replicate 1: experiment 1, second capillary; for Replicate 1 / Replicate 2 / Replicate 3 / Tm 1 / Tm2 / Tm 3 / Tm average overall / ΔTm at 1250 µM: 1.25 mM; for Replicate 2: experiment 2, second capillary; for Replicate 3: experiment 3, second capillary; for Tm 1: experiment 1, first capillary; for Tm2: experiment 2, first capillary; for Tm 3: experiment 3, first capillary; for Tm average overall / ΔTm at 1250 µM: three experiments; for ΔTm at 1250 µM: vs Neu5Ac, read-out: ΔTm average overall
T1 construct: made in house
T1 sequence (B4EZY7 1-496): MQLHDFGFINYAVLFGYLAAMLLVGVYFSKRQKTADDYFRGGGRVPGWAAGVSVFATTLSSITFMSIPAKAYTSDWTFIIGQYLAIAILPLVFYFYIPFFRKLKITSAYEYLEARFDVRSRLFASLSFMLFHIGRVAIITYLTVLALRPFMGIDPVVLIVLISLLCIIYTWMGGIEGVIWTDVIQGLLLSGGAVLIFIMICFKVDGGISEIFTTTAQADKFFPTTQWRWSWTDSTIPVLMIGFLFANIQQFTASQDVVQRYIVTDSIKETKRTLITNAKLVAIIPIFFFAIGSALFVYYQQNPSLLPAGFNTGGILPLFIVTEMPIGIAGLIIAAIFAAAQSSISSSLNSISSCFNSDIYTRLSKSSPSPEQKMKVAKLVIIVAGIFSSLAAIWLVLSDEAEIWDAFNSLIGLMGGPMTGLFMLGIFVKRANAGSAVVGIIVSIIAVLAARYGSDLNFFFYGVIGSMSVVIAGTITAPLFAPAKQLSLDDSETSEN
Experimental: as §1, §2, §3, §4

[1] = PmSiaT, experiment 1, vs Neu5Ac, read-out: ΔTm 1
[2] = PmSiaT, experiment 2, vs Neu5Ac, read-out: ΔTm 2
[3] = PmSiaT, experiment 3, vs Neu5Ac, read-out: ΔTm 3

SaSiaT, sequence (A0A0H2XJ46 entry or part of it): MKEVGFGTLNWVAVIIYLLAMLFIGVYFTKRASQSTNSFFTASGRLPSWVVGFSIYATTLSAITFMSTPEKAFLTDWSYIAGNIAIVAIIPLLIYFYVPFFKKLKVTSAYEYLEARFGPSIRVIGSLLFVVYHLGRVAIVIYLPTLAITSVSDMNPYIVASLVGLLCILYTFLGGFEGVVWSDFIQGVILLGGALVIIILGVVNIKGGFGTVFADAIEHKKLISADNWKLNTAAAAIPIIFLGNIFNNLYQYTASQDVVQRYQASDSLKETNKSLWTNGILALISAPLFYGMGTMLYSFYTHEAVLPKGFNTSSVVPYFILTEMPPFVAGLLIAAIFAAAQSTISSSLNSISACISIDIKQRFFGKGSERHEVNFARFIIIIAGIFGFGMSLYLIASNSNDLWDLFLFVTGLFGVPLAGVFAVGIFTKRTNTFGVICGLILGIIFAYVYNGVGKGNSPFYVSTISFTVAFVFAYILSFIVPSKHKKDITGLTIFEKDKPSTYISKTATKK

Structure (SMILES) | Average 1 (SaSiaT) [°C] | Average 2 (SaSiaT) [°C] | Average 3 (SaSiaT) [°C] | Replicate 1 (SaSiaT) [°C] | Replicate 2 (SaSiaT) [°C] | Replicate 3 (SaSiaT) [°C] | Tm 1 (SaSiaT; SaSiaT) [°C] | Tm2 (SaSiaT; SaSiaT) [°C] | Tm 3 (SaSiaT; SaSiaT) [°C] | Overall average (Tm) (SaSiaT; SaSiaT) [°C] | Average 1 (PmSiaT) [°C] | Average 2 (PmSiaT) [°C] | Average 3 (PmSiaT) [°C] | Replicate 1 (PmSiaT) [°C] | Replicate 2 (PmSiaT) [°C] | Replicate 3 (PmSiaT) [°C] | Tm 1 (PmSiaT; PmSiaT) [°C] | Tm2 (PmSiaT; PmSiaT) [°C] | Tm 3 (PmSiaT; PmSiaT) [°C] | Tm average overall (PmSiaT; PmSiaT) [°C] | also measured
O=C(CCl)NC1C(O)CC(O)(C(=O)O)OC1C(O)C(O)CO (stereo not shown) [Compound 6g] | 49.0 | 49.2 | 49.3 | 49.0 | 49.0 | 48.9 | 49.0 | 49.4 | 49.7 | 49.2 | 49.8 | 49.9 | 49.5 | 49.7 | 49.9 | 49.5 | 49.9 | 49.9 | 49.5 | 49.7 | ΔTm (PmSiaT; [1]): 0.8 °C; ΔTm (PmSiaT; [2]): 0.7 °C; ΔTm (PmSiaT; [3]): 0.2 °C; ΔTm at 1250 µM (PmSiaT; PmSiaT): 0.6 °C
[N-]=[N+]=NCC(=O)N[C@H]1[C@H]([C@H](O)[C@H](O)CO)O[C@@](O)(C(=O)O)C[C@@H]1O [Compound 6h, 5-azidoacetamido-3,5-dideoxy-D-glycero-α-galacto-non-2-ulopyranosonate, reference compound] | 52.8 | 52.9 | 52.8 | 52.7 | 53.0 | 52.7 | 52.8 | 52.7 | 52.8 | 52.8 | 49.2 | 49.0 | 49.1 | 49.2 | 48.8 | 49.3 | 49.2 | 49.2 | 49.0 | 49.1 | ΔTm (PmSiaT; [1]): -0.1 °C; ΔTm (PmSiaT; [2]): 0.1 °C; ΔTm (PmSiaT; [3]): 0 °C; ΔTm at 1250 µM (PmSiaT; PmSiaT): 0 °C
CSCC(O)C(O)C1OC(O)(C(=O)O)CC(O)C1NC(C)=O (stereo not shown) [Compound 8a] | 51.0 | 49.2 | 50.8 | 50.9 | 49.2 | 50.4 | 51.0 | 49.3 | 51.3 | 50.3 | 45.9 | 46.2 | 46.1 | 45.8 | 46.0 | 46.0 | 46.1 | 46.3 | 46.2 | 46.1 | ΔTm (PmSiaT; [1]): -3.1 °C; ΔTm (PmSiaT; [2]): -3 °C; ΔTm (PmSiaT; [3]): -3.2 °C; ΔTm at 1250 µM (PmSiaT; PmSiaT): -3.1 °C
CCSCC(O)C(O)C1OC(O)(C(=O)O)CC(O)C1NC(C)=O (stereo not shown) [Compound 8b] | 49.9 | 48.6 | 49.8 | 49.9 | 48.7 | 49.6 | 49.9 | 48.5 | 50.0 | 49.4 | 45.9 | 45.9 | 46.1 | 45.9 | 46.0 | 46.1 | 45.8 | 45.9 | 46.2 | 46.0 | ΔTm (PmSiaT; [1]): -3.1 °C; ΔTm (PmSiaT; [2]): -3.3 °C; ΔTm (PmSiaT; [3]): -3.2 °C; ΔTm at 1250 µM (PmSiaT; PmSiaT): -3.2 °C
CC(=O)NC1C(O)CC(O)(C(=O)O)OC1C(O)C(O)CCl (stereo not shown) [Compound 8c] | 48.9 | 49.6 | 49.7 | 48.9 | 49.6 | 49.6 | 48.9 | 49.5 | 49.8 | 49.4 | 47.7 | 47.9 | 48.0 | 47.8 | 47.9 | 48.1 | 47.6 | 47.9 | 47.9 | 47.9 | ΔTm (PmSiaT; [1]): -1.3 °C; ΔTm (PmSiaT; [2]): -1.3 °C; ΔTm (PmSiaT; [3]): -1.3 °C; ΔTm at 1250 µM (PmSiaT; PmSiaT): -1.3 °C
CC(=O)NC1C(O)CC(O)(C(=O)O)OC1C(O)C(O)CBr (stereo not shown) [Compound 8d] | 49.9 | 49.9 | 51.8 | 49.8 | 49.9 | 52.8 | 49.9 | 49.9 | 50.8 | 50.5 | 47.3 | 47.2 | 47.2 | 47.4 | 47.1 | 47.0 | 47.2 | 47.3 | 47.4 | 47.2 | ΔTm (PmSiaT; [1]): -1.7 °C; ΔTm (PmSiaT; [2]): -2 °C; ΔTm (PmSiaT; [3]): -2.1 °C; ΔTm at 1250 µM (PmSiaT; PmSiaT): -1.9 °C
CC(=O)NC1C(O)CC(O)(C(=O)O)OC1C(O)C(O)CI (stereo not shown) [Compound 8e] | 49.3 | 49.0 | 49.5 | 49.3 | 48.9 | 49.1 | 49.2 | 49.0 | 49.9 | 49.3 | 46.9 | 47.2 | 47.3 | 46.7 | 47.2 | 47.2 | 47.2 | 47.3 | 47.3 | 47.1 | ΔTm (PmSiaT; [1]): -2.1 °C; ΔTm (PmSiaT; [2]): -2 °C; ΔTm (PmSiaT; [3]): -2 °C; ΔTm at 1250 µM (PmSiaT; PmSiaT): -2 °C
CC(=O)NC1C(O)CC(O)(C(=O)O)OC1C(O)C(C)O (stereo not shown) [Compound 8f] | 43.1 | 43.0 | 42.9 | 42.9 | 43.1 | 43.0 | 43.2 | 43.0 | 42.8 | 43.0 | 46.0 | 45.9 | 45.9 | 46.0 | 45.9 | 45.9 | 46.0 | 45.8 | 45.9 | 45.9 | binding / thermal stabilization in words (SaSiaT; SaSiaT, nanoDSF screen): complete loss of affinity; binding / thermal stabilization in words (PmSiaT; PmSiaT, nanoDSF screen): complete loss of affinity

From PMC9295122, “Sialic Acid Derivatives Inhibit SiaT Transporters and Delay Bacterial Growth” (ACS Chemical Biology, 2022)
